According to patent publication US20120277306A1, “COMPOSITION CONTAINING METAL-ACIDIC AMINO ACID CHELATE ACCELERATING ABSORPTION OF METAL” (priority 2006, published 2012):

Experiments:
[1] = Plasma zinc concentration over time after administration of zinc samples; format: in vivo, Sprague-Dawley rat; details: zinc 40 mg/kg; for plasma zinc concentration over time: blood at 0.5, 1, 2, 4, 8 hours
Experimental: These experimental animals were randomly assigned into a zinc sulfate-administered group, a zinc arginine-administered group and a zinc-aspartate chelate-administered group. After animals were fasted for 12 hours, each zinc sample was administered to rats, such that a zinc concentration in the sample is 40 mg/kg. After administration of the samples was complete, blood was collected at a time point of 0.5, 1, 2, 4, and 8 hours, respectively, and treated with heparin. Then, blood plasma was stored in a refrigerator and used for analysis of zinc concentrations. On the other hand, in order to examine distribution of zinc in the tissue, each zinc sample was administered to rats. After 8 hours, animals were sacrificed to remove organs. Zinc concentrations in the blood plasma and tissues were determined by fluorometry using Zinquin.

[2] = tested on: prostatitis-induced rats (Escherichia coli ATCC 25922); assay: White rat model of chronic bacterial prostatitis, H&E histology of prostate
[3] = tested on: prostate cancer cell line (R3327 AT-3.1); assay: Prostate cancer model, growth of cancer cells injected into the prostate; format: in vivo, COP rat
Experimental: 10-week-old COP male rats (Japan SLC, Shizuoka, Japan) were housed and allowed to acclimate to the new environment for seven days prior to the experiment, in a breeding room maintained at a temperature of 22±2° C., humidity of 55±5%, and a 12-h light/dark (L/D) cycle (light from 8:00 a.m. to 8:00 p.m.).
5×10^4 cells/head of the prostate cancer cell line (R3327 AT-3.1) were injected into the prostate of animals and growth of cancer cells was measured.

[4] = Distribution of zinc in tissues (prostate, testis) after administration of zinc samples; format: in vivo, Sprague-Dawley rat
ZnT-2 = assay: Expression of zinc transporter protein mRNA in prostatic tissue (RT-PCR); format: in vivo; details: compared to before oral administration of zinc
Experimental: In order to examine effects of zinc-aspartate complex on the expression of ZnT-2 and ZnT-4, known as zinc transporter proteins, experiments were carried out according to the following procedure.
Using Trizol Reagent (Invitrogen, USA), total RNA was extracted from 0.1 g of prostatic tissue. Using M-MLV reverse transcriptase (Invitrogen, USA), cDNA was synthesized from 5 μg of the extracted total RNA. 20 pmol of a primer was added to 3 μl of cDNA to make a volume of 20 μl and PCR was carried out as follows: initial denaturation at 95° C. for 5 min, followed by 26 cycles of denaturation at 94° C. for 1 min, annealing at an annealing temperature corresponding to conditions of each primer for 1 min and extension at 72° C. for 1 min, and final extension at 72° C. for 10 min.
PCR products were subjected to electrophoresis on 1.5% agarose gel containing EtBr, followed by confirmation of products under UV irradiation.
Effects of the zinc-aspartate complex, zinc sulfate and zinc arginine on the expression of mRNAs for ZnT-2, ZnT-4 and G3PDH were investigated.

[5] = tested on: patients with chronic prostatitis; assay: Clinical trial of zinc-aspartate chelate in chronic prostatitis patients (NIH-CPSI); format: in vivo, human
Experimental: 34 patients with a medical history of more than 5 years of chronic prostatitis were administered with a zinc-aspartate chelate at a dose of 50 mg/day for 8 weeks. Clinical trials were conducted at the Department of Urology, College of Medicine, Korea University (Seoul, Korea). Prostatitis classification and symptom relief were analyzed according to National Institutes of Health Chronic Prostatitis Symptom Index (NIH-CPSI, proposed by NIH in 1995). As clinical effects by a conventional therapy, the data of the clinical study of Sungkyunkwan University School of Medicine (Seoul, Korea), published in the Korean Journal of Urology (2001), were cited.
Tables 3 and 4 below respectively show the results for chronic prostatitis patients with administration of an antibiotic and an anti-inflammatory drug as conventional therapeutic agents and with administration of the zinc-aspartate chelate, in conjunction with the results for the control group.

[6] = 15 mg/kg/day oral, 30 days, H&E stained prostate sections
[7] = 4 and 8 hours after administration
[8] = 8 hours after administration, zinc 40 mg/kg, p<0.001

O=S(=O)([O-])[O-].[Zn+2] [zinc sulfate]
time point of maximum blood zinc level after administration [1]: 2 h | plasma zinc concentration over time [1]: time-dependent increase

N=C(N)NCCC[C@H](N)C(=O)O.[Zn] [zinc arginine]
plasma zinc concentration compared to zinc sulfate-administered group [1]: significant increase | plasma zinc concentration over time [1]: time-dependent increase

zinc-aspartate chelate
plasma zinc concentration compared to zinc sulfate-administered group [1]: significant increase | time point of maximum blood zinc level after administration [1]: 2 h | plasma zinc concentration over time [1]: time-dependent increase | fibrosis in the interstitium [2, 6]: substantially no progress of fibrosis | infiltration of inflammatory cells into and around glandular tissues [2, 6]: no infiltration of inflammatory cells | prostate tissue morphology ([2]; 15 mg/kg/day oral, 30 days, compared with normal group): normal tissue morphology comparable to that of the normal group | anti-inflammatory effects ([2]; E. coli inoculated prostate, oral administration, stained prostate tissues): excellent anti-inflammatory effects | weight of tumor mass compared to the control group ([3]; 10 mg/kg oral daily): significant weight reduction of tumor mass | weight of tumor mass compared to the Taxel group ([3]; 10 mg/kg oral daily vs DoceTaxel 10 mg/kg once a week I.P): much lower weight of tumor mass | intraprostatic zinc level compared to zinc sulfate- and zinc arginine-administered groups [4, 7]: significantly high zinc concentration | intratesticular zinc level compared to zinc sulfate- and zinc arginine-administered groups [4, 7]: significantly high zinc concentration | zinc concentration in testis [4, 8]: significantly high zinc concentration | zinc concentration in the prostatic tissue [4, 8]: significantly high zinc concentration | expression level of ZnT-2 mRNA (ZnT-2): highest increase | side effects ([5]; 50 mg/day for 8 weeks, 34 patients): no reports showing noticeable side effects | NIH-CPSI Dysuria, after treatment ([5]; 8 weeks, oral administration, 50 mg/day, P 0.01): 4.02 | NIH-CPSI Pain, after treatment ([5]; 8 weeks, oral administration, 50 mg/day, P 0.036): 6.82 | NIH-CPSI Quality of life, after treatment ([5]; 8 weeks, oral administration, 50 mg/day, P 0.04): 2.61 | NIH-CPSI Dysuria, before treatment ([5]; baseline, n = 34): 5.53 | NIH-CPSI Pain, before treatment ([5]; baseline, n = 34): 8.412 | NIH-CPSI Quality of life, before treatment ([5]; baseline, n = 34): 3.53 | therapeutic effects compared with conventional drug therapy and physical therapy ([5]; chronic prostatitis patients, Tables 3 and 4): almost the similar level of therapeutic effects
